From patent US8569336B2, “Compounds for the treatment of inflammatory disorders” (priority 2008, dated 2013)
pIC50, pKi: −log10 of the molar value.

Target: T1, purified catalytic domain of recombinant human TACE (rhTACEc) (Homo sapiens, UniProt P78536, N452Q/S266A)
T1 construct: 6xHis (C); made in house; host or cells: baculovirus/Hi5 insect cells
Test: TACE kinetic assay: cleavage of internally quenched peptide substrate TNF-FRET 2 (Ki)
Assay type: biochemical
Conditions: Ki, TNF-FRET 2 substrate

T1 sequence (P78536 215-477 S266A/N452Q): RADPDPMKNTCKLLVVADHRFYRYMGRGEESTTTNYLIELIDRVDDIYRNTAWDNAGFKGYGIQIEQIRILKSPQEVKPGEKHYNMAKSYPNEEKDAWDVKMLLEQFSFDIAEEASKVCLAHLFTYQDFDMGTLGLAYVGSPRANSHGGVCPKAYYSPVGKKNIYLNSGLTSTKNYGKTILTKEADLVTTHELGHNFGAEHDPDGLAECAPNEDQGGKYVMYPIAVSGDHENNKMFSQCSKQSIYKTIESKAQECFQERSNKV

Row | Compound | pKi
1 | COc1ccc2c(c1)C(=O)N(C[C@@]1(c3cc4nc(N5CCC[C@@H](O)C5)ccc4o3)NC(=O)NC1=O)C2 [Compound 2170] | 9.38
2 | COc1ccc2c(c1)C(=O)N(C[C@@]1(c3cc4nc(-c5cnn(C)c5)ccc4o3)NC(=O)NC1=O)C2 [Compound 2104] | 9.72
3 | COc1ccc2c(c1F)C(=O)N(C[C@@]1(c3cc4nc(-c5ccncc5)ccc4o3)NC(=O)NC1=O)C2 [Compound 2122] | 9.24

Same assay, conditions: TNF-FRET 2 substrate, read-out: Ki

Row | pKi | Compound
4 | 8.28 | COCCN1CCc2oc([C@]3(CN4Cc5ccc(OC)cc5C4=O)NC(=O)NC3=O)cc2C1 [Compound 2267]
5 | 9.17 | COc1ccc2c(c1)C(=O)N(C[C@@]1(c3cc4cc(-c5cccnc5)ncc4o3)NC(=O)NC1=O)C2 [Compound 2239]
6 | 9.28 | COC(=O)Nc1ccc2oc([C@]3(CN4Cc5ccc(OC)cc5C4=O)NC(=O)NC3=O)cc2n1 [Compound 2474]
7 | 9.27 | COc1ccc2c(c1)C(=O)N(C[C@@]1(c3cc4nc(N5C(=O)CCC5C)ccc4o3)NC(=O)NC1=O)C2 (stereo partly drawn) [Compound 2161]
8 | 8.96 | COc1ccc2c(c1Cl)C(=O)N(C[C@@]1(c3cc4ncccc4o3)NC(=O)NC1=O)C2 [Compound 2153]
9 | 9.15 | COc1ccc2c(c1)C(=O)N(C[C@@]1(c3cc4nc(N5CCCC(C(N)=O)C5)ccc4o3)NC(=O)NC1=O)C2 (stereo partly drawn) [Compound 1515]
10 | 9.28 | CCN1CCN(c2ccc3oc([C@]4(CN5Cc6ccc(OCC7CC7)c(F)c6C5=O)NC(=O)NC4=O)cc3n2)CC1 [Compound 900]
11 | 9.20 | COc1ccc2c(c1)C(=O)N(C[C@@]1(c3cc4c(Cl)nccc4o3)NC(=O)NC1=O)C2 [Compound 2278]
12 | 9.12 | COc1ccc2c(c1)C(=O)N(C[C@@]1(c3cc4cnc(-c5cncnc5)cc4o3)NC(=O)NC1=O)C2 [Compound 2233]
13 | 9.15 | COc1ccc2c(c1)C(=O)N(C[C@@]1(c3cc4nc(-c5ccc(C#N)nc5)ccc4o3)NC(=O)NC1=O)C2 [Compound 1530]
14 | 8.92 | COc1ccc2c(c1)C(=O)N(C[C@@]1(c3cc4nc(NC(=O)c5ccncc5)ccc4o3)NC(=O)NC1=O)C2 [Compound 2135]
15 | 9.42 | COc1ccc2c(c1)C(=O)N(C[C@@]1(c3cc4cc(C5(C(N)=O)CC5)ccc4o3)NC(=O)NC1=O)C2 [Compound 2421]
16 | 9.17 | COc1ccc2c(c1)C(=O)N(C[C@@]1(c3cc4nc(N5CCCC5=O)ccc4o3)NC(=O)NC1=O)C2 [Compound 2171]
17 | 9.44 | COc1ccc2c(c1F)C(=O)N(C[C@@]1(c3cc4cccnc4o3)NC(=O)NC1=O)C2 [Compound 2271]
18 | 9.23 | COc1ccc2c(c1F)C(=O)N(C[C@@]1(c3cc4nc(N5CCN(C)C5=O)c(F)cc4o3)NC(=O)NC1=O)C2 [Compound 1329]
19 | 9.24 | COc1ccc2c(c1)C(=O)N(C[C@@]1(c3cc4c(C(N)=O)nccc4o3)NC(=O)NC1=O)C2 [Compound 2401]
20 | 9.52 | COc1ccc2c(c1)C(=O)N(C[C@@]1(c3cc4nc(-c5cncnc5)ccc4o3)NC(=O)NC1=O)C2 [Compound 2147]
21 | 9.47 | COc1ccc2c(c1)C(=O)N(C[C@@]1(c3cc4nc(N5CCCCC5)ccc4o3)NC(=O)NC1=O)C2 [Compound 2168]
22 | 9.26 | COc1ccc2c(c1)C(=O)N(C[C@@]1(c3cc4c(C(C)O)nccc4o3)NC(=O)NC1=O)C2 (stereo partly drawn) [Compound 2294]
23 | 9.33 | COc1ccc2c(c1F)C(=O)N(C[C@@]1(c3cc4ncccc4o3)NC(=O)NC1=O)C2 [Compound 2203]

System: TNF-α production from human whole blood
Test: Inhibition of TNF-α production from human whole blood (hWBA), LPS stimulated, ELISA
Assay type: cell-based
Conditions: Homo sapiens, 3.5 h, human whole blood diluted 1:1, LPS stimulated, 3.5 h, TNF-α by ELISA; read-out: hWBA (IC50)

Row | pIC50 | Compound
24 | 5.98 | COCCN1CCc2oc([C@]3(CN4Cc5ccc(OC)cc5C4=O)NC(=O)NC3=O)cc2C1 [Compound 2267]
25 | 6.14 | COc1ccc2c(c1)C(=O)N(C[C@@]1(c3cc4cc(-c5cccnc5)ncc4o3)NC(=O)NC1=O)C2 [Compound 2239]
26 | 6.73 | COc1ccc2c(c1)C(=O)N(C[C@@]1(c3cc4nc(N5C(=O)CCC5C)ccc4o3)NC(=O)NC1=O)C2 (stereo partly drawn) [Compound 2161]
27 | 5.58 | COc1ccc2c(c1Cl)C(=O)N(C[C@@]1(c3cc4ncccc4o3)NC(=O)NC1=O)C2 [Compound 2153]
28 | 6.58 | COc1ccc2c(c1)C(=O)N(C[C@@]1(c3cc4c(Cl)nccc4o3)NC(=O)NC1=O)C2 [Compound 2278]
29 | 6.11 | COc1ccc2c(c1)C(=O)N(C[C@@]1(c3cc4cnc(-c5cncnc5)cc4o3)NC(=O)NC1=O)C2 [Compound 2233]
30 | 5.56 | COc1ccc2c(c1)C(=O)N(C[C@@]1(c3cc4nc(NC(=O)c5ccncc5)ccc4o3)NC(=O)NC1=O)C2 [Compound 2135]
31 | 6.31 | COc1ccc2c(c1)C(=O)N(C[C@@]1(c3cc4nc(N5CCCC5=O)ccc4o3)NC(=O)NC1=O)C2 [Compound 2171]
32 | 6.66 | COc1ccc2c(c1F)C(=O)N(C[C@@]1(c3cc4cccnc4o3)NC(=O)NC1=O)C2 [Compound 2271]
33 | 5.97 | COc1ccc2c(c1)C(=O)N(C[C@@]1(c3cc4nc(-c5cncnc5)ccc4o3)NC(=O)NC1=O)C2 [Compound 2147]
34 | 6.05 | COc1ccc2c(c1)C(=O)N(C[C@@]1(c3cc4nc(N5CCCCC5)ccc4o3)NC(=O)NC1=O)C2 [Compound 2168]
35 | 6.70 | COc1ccc2c(c1F)C(=O)N(C[C@@]1(c3cc4ncccc4o3)NC(=O)NC1=O)C2 [Compound 2203]

Row | Compound | pIC50
36 | COc1ccc2c(c1)C(=O)N(C[C@@]1(c3cc4nc(N5CCC[C@@H](O)C5)ccc4o3)NC(=O)NC1=O)C2 [Compound 2170] | 6.72
37 | COc1ccc2c(c1)C(=O)N(C[C@@]1(c3cc4nc(-c5cnn(C)c5)ccc4o3)NC(=O)NC1=O)C2 [Compound 2104] | 6.55
38 | COc1ccc2c(c1F)C(=O)N(C[C@@]1(c3cc4nc(-c5ccncc5)ccc4o3)NC(=O)NC1=O)C2 [Compound 2122] | 6.37

Same assay, conditions: Homo sapiens, LPS-stimulated human whole blood, TNF-α by ELISA; read-out: hWBA (IC50)

Row | pIC50 | Compound
39 | 6.61 | COc1ccc2c(c1)C(=O)N(C[C@@]1(c3cc4nc(N5CCCC(C(N)=O)C5)ccc4o3)NC(=O)NC1=O)C2 (stereo partly drawn) [Compound 1515]
40 | 6.54 | CCN1CCN(c2ccc3oc([C@]4(CN5Cc6ccc(OCC7CC7)c(F)c6C5=O)NC(=O)NC4=O)cc3n2)CC1 [Compound 900]
41 | 5.79 | COc1ccc2c(c1)C(=O)N(C[C@@]1(c3cc4nc(-c5ccc(C#N)nc5)ccc4o3)NC(=O)NC1=O)C2 [Compound 1530]
42 | 6.63 | COc1ccc2c(c1F)C(=O)N(C[C@@]1(c3cc4nc(N5CCN(C)C5=O)c(F)cc4o3)NC(=O)NC1=O)C2 [Compound 1329]

Same assay, conditions: Homo sapiens, human whole blood diluted 1:1, LPS stimulated, TNF-α by ELISA; read-out: hWBA (IC50)

Row | pIC50 | Compound
43 | 6.26 | COC(=O)Nc1ccc2oc([C@]3(CN4Cc5ccc(OC)cc5C4=O)NC(=O)NC3=O)cc2n1 [Compound 2474]
44 | 6.05 | COc1ccc2c(c1)C(=O)N(C[C@@]1(c3cc4cc(C5(C(N)=O)CC5)ccc4o3)NC(=O)NC1=O)C2 [Compound 2421]
45 | 6.57 | COc1ccc2c(c1)C(=O)N(C[C@@]1(c3cc4c(C(N)=O)nccc4o3)NC(=O)NC1=O)C2 [Compound 2401]
46 | 6.49 | COc1ccc2c(c1)C(=O)N(C[C@@]1(c3cc4c(C(C)O)nccc4o3)NC(=O)NC1=O)C2 (stereo partly drawn) [Compound 2294]

System: not listed separately
Test: Area under the curve determinations of plasma levels in rats (rrAUC), oral 10 mg/kg
Assay type: in vivo
Conditions: plasma 0.5-6 h

Row | RR AUC (rapid rat AUC, rrAUC) [µM·h] | Compound
47 | 0.536 | COc1ccc2c(c1)C(=O)N(C[C@@]1(c3cc4nc(-c5ccc(C#N)nc5)ccc4o3)NC(=O)NC1=O)C2 [Compound 1530]

Same assay, conditions: rat, plasma 0.5-6 h, read-out: RR AUC (rapid rat AUC, rrAUC)

Row | AUC [µM·h] | Compound
48 | 0.145 | COc1ccc2c(c1)C(=O)N(C[C@@]1(c3cc4nc(N5CCCC(C(N)=O)C5)ccc4o3)NC(=O)NC1=O)C2 (stereo partly drawn) [Compound 1515]
49 | 0.024 | CCN1CCN(c2ccc3oc([C@]4(CN5Cc6ccc(OCC7CC7)c(F)c6C5=O)NC(=O)NC4=O)cc3n2)CC1 [Compound 900]
50 | 0.226 | COc1ccc2c(c1F)C(=O)N(C[C@@]1(c3cc4nc(N5CCN(C)C5=O)c(F)cc4o3)NC(=O)NC1=O)C2 [Compound 1329]

Same assay, conditions: rat, plasma 0.5-6 h post-dosing, read-out: RR AUC (rapid rat AUC, rrAUC)

Row | AUC [µM·h] | Compound
51 | 0.278 | COCCN1CCc2oc([C@]3(CN4Cc5ccc(OC)cc5C4=O)NC(=O)NC3=O)cc2C1 [Compound 2267]
52 | 9.84 | COc1ccc2c(c1)C(=O)N(C[C@@]1(c3cc4cc(-c5cccnc5)ncc4o3)NC(=O)NC1=O)C2 [Compound 2239]
53 | 4.79 | COc1ccc2c(c1)C(=O)N(C[C@@]1(c3cc4nc(N5C(=O)CCC5C)ccc4o3)NC(=O)NC1=O)C2 (stereo partly drawn) [Compound 2161]
54 | 1.76 | COc1ccc2c(c1Cl)C(=O)N(C[C@@]1(c3cc4ncccc4o3)NC(=O)NC1=O)C2 [Compound 2153]
55 | 12.1 | COc1ccc2c(c1)C(=O)N(C[C@@]1(c3cc4c(Cl)nccc4o3)NC(=O)NC1=O)C2 [Compound 2278]
56 | 3.81 | COc1ccc2c(c1)C(=O)N(C[C@@]1(c3cc4cnc(-c5cncnc5)cc4o3)NC(=O)NC1=O)C2 [Compound 2233]
57 | 0.56 | COc1ccc2c(c1)C(=O)N(C[C@@]1(c3cc4nc(NC(=O)c5ccncc5)ccc4o3)NC(=O)NC1=O)C2 [Compound 2135]
58 | 9.1 | COc1ccc2c(c1)C(=O)N(C[C@@]1(c3cc4nc(N5CCCC5=O)ccc4o3)NC(=O)NC1=O)C2 [Compound 2171]
59 | 10.6 | COc1ccc2c(c1F)C(=O)N(C[C@@]1(c3cc4cccnc4o3)NC(=O)NC1=O)C2 [Compound 2271]
60 | 2.19 | COc1ccc2c(c1)C(=O)N(C[C@@]1(c3cc4nc(-c5cncnc5)ccc4o3)NC(=O)NC1=O)C2 [Compound 2147]
61 | 3.53 | COc1ccc2c(c1)C(=O)N(C[C@@]1(c3cc4nc(N5CCCCC5)ccc4o3)NC(=O)NC1=O)C2 [Compound 2168]
62 | 3.92 | COc1ccc2c(c1F)C(=O)N(C[C@@]1(c3cc4ncccc4o3)NC(=O)NC1=O)C2 [Compound 2203]

Row | Compound | AUC [µM·h]
63 | COc1ccc2c(c1)C(=O)N(C[C@@]1(c3cc4nc(N5CCC[C@@H](O)C5)ccc4o3)NC(=O)NC1=O)C2 [Compound 2170] | 0.414
64 | COc1ccc2c(c1)C(=O)N(C[C@@]1(c3cc4nc(-c5cnn(C)c5)ccc4o3)NC(=O)NC1=O)C2 [Compound 2104] | 0.369
65 | COc1ccc2c(c1F)C(=O)N(C[C@@]1(c3cc4nc(-c5ccncc5)ccc4o3)NC(=O)NC1=O)C2 [Compound 2122] | 8.18

Same assay, conditions: rat, plasma, blood collected 0.5-6 h post-dosing, read-out: RR AUC (rapid rat AUC, rrAUC)

Row | AUC [µM·h] | Compound
66 | 15.5 | COC(=O)Nc1ccc2oc([C@]3(CN4Cc5ccc(OC)cc5C4=O)NC(=O)NC3=O)cc2n1 [Compound 2474]
67 | 0.037 | COc1ccc2c(c1)C(=O)N(C[C@@]1(c3cc4cc(C5(C(N)=O)CC5)ccc4o3)NC(=O)NC1=O)C2 [Compound 2421]
68 | 1.43 | COc1ccc2c(c1)C(=O)N(C[C@@]1(c3cc4c(C(N)=O)nccc4o3)NC(=O)NC1=O)C2 [Compound 2401]
69 | 0.154 | COc1ccc2c(c1)C(=O)N(C[C@@]1(c3cc4c(C(C)O)nccc4o3)NC(=O)NC1=O)C2 (stereo partly drawn) [Compound 2294]
